# In patent publication US4443448A, “Indane derivatives, pharmaceutical compositions thereof and method of preparation” (priority 1980, dated 1984):
# Experiments:
# methylphenidate = assay: Methylphenidate antagonism in mice; assay type: in vivo; details: for ED50: Mus musculus, ip, 2 h, read-out: MePh antag. ED50 2 hr i.p., mice, test substance i.p., 2 hr before methylphenidate 60 mg/kg s.c.
# Method: Methylphenidate antagonism (ED50 mg/kg i.p.)
# (§1) Perspex observation cages without bottom and lid, consisting of 5 sections each measuring 12×25×30 cm.
# 3×2 mice are used for each dose level. Two or 24 hours after injection of test substance, methylphenidate, 60 mg/kg, is injected s.c. After administration of methylphenidate the mice are placed in the observation cages, 2 in each cage, where they remain for exactly 1 hour. The cages were placed on corrugated paper, the corrugations facing upwards. It is examined whether the mice have been biting the corrugated paper or not. […] If one or more of the control pairs have not been biting, the test has to be repeated on a new set of mice.
# The result is stated in fractions: 0/3, 1/3, 2/3 and 3/3 where 0, 1, 2 and 3 are the number of pairs which have not been biting on receipt of the dose in question.
# amphetamine = assay: Amphetamine antagonism in rats; assay type: in vivo; details: rats, p.o., amphetamine 10 mg/kg base i.v.; for ED50: Rattus norvegicus, po, read-out: Amphetamine antag. ED50 p.o.
# Method: Amphetamine antagonism (ED50 mg/kg i.p.)
# as §1
# The test substance is given p.o. in a reasonable dose based on the determined LD50. Two or 24 hours later an intravaneous injection of amphetamine sulphate 13.6 mg/kg (10 mg/kg amphetamine base) is given, after which the rats are placed individually in the cages. The cages are placed on white corrugated paper. Five rats are used for each dose level. Observations are made after 55 minutes and 65 minutes-observation time: 1 minute. The animals are observed for stereotypy (movements of the head, compulsive gnawing). […] If the compound has full antagonistic effect another group of rats is used at a lower dose. […] The result is stated as fractions: 0/5, 1/5, 2/5, 3/5, 4/5 and 5/5, where 0, 1, 2, 3, 4 and 5 indicate the number of rats which have not shown stereotypy at the dose in question. The results are calculated as ED50 in mg/kg.
# in vivo [1] = assay: in vivo; set-up: species or system rats; details: for Ratio catalep./Amphet.: catalepsy ED50 / amphetamine antagonism ED50; for ED50: rat, in vivo, po, read-out: Catalep. (catalepsy wire mesh, rat, max, ED50)
# Method: A vertical wire netting (50 cm×49 cm). The meshes (openings) of the netting are square (1 cm×1 cm). The wire diameter is 2 mm.
# The animals are labeled and used in groups of five. The test substance is administered orally (p.o) at 4 dose levels selected from the fixed dose scale.
# The animals are placed in the middle of the vertical wire netting 60, 120, 180, 240, 300 and 360 minutes after administration of the test compound. The animals are considered cataleptic when they remain immobile during a period of 15 seconds.
# This cataleptic reaction is designated +. If the rats are "atonic" and passively slide down the wire mesh they are considered not cataleptic. If the animals climb up and down the wire mesh they are nor cataleptic.
# In both situations the designation--is used.
# [2] = Mouse grid shock (analgesia); assay type: in vivo; details: mice, minimal effective dose, in mg/kg
# Method: The mouse grid consists of a perspex cage with wire grid bottom and a perspex lid, on which is placed a microphone sensitive to the frequency of a mouse squeak. A stimulator with motordriven potentiometer applies a sequence of square wave impulses of continuously increasing milliamperage to the grid. Frequency of impulses 20 cycles/sec., duration 5 msec. Milliamperage is recorded on a digital amperemeter connected to the stimulator. Activation of the microphone by a mouse-squeak cuts off the current and the final milliamperage appears on the meter.
# Five mice are used for each dose level. Each mouse serves as its own control.
# Prior to the administration of test substance the animals are placed on the grid one at a time, and the pain threshold is determined by increasing the current intensity until the mouse squeaks. The pain threshold may be read on the milliamperemeter. Fifteen minutes and 30 minutes after administration of test substance the mice are tested again and the pain thresholds recorded.
# Analgesic effect is present, when the pain threshold is increased over the pre-dosing value (control value). The results are stated as % increase in pain threshold calculated on the basis of the control value.
# The registration can also be done as an on-line procedure. In this case the punching instruction and punching cards will be provided automatically and the results will be registered as a minimal effective dose (MED) determined after van der Waerdens X-test.
# in vivo [3] = details: iv
# [4] = rats, p.o., strongest effect within first 6 hours
SMILES,ED50 (methylphenidate) [mg/kg],ED50 (amphetamine) [mg/kg],Ratio catalep./Amphet. (in vivo [1]),ED50 (in vivo [1]; [4]) [mg/kg],MED Grid Shock [2],LD50 (in vivo [3]) [mg/kg],"MePh antag. ED50 2 hr i.p. (methylphenidate; mice, test substance i.p., 2 hr before methylphenidate 60 mg/kg s.c., 120 min) [mg/kg]",Amphetamine antag. ED50 p.o. (amphetamine) [mg/kg],"Catalep. (catalepsy wire mesh, rat, max, ED50) (in vivo [1]; [4]) [mg/kg]"
CC(C)N1CCN(C2CC(c3ccc(F)cc3)c3ccc(Cl)cc32)CC1 (centres unmarked) [Lu 17-129],0.8,1.8,0.4,0.8,5,80,–,–,–
CSc1ccc2c(c1)[C@H](N1CCN(CCO)CC1)C[C@H]2c1ccc(F)cc1 (relative stereo) [Lu 17-053],1.3,9.1,–,6.2,2.5,68,–,–,–
Cc1ccc2c(c1)C(N1CCN(C(C)C)CC1)CC2c1ccc(F)cc1 (centres unmarked) [Lu 17-069],0.8,5.6,1.2,6.7,0.63,56,–,–,–
CC(C)N1CCN(C2CC(c3ccc(F)cc3)c3ccc(C(F)(F)F)cc32)CC1 (centres unmarked) [Lu 18-050],0.44,0.22,2.4,0.52,10,57,–,–,–
CN1CCN(C2CC(c3ccc(F)cc3)c3ccc(S(C)(=O)=O)cc32)CC1 (centres unmarked) [Lu 18-040],8.3,12,0.8,10,> 20,130,–,–,–
"OCCN1CCN(CCCN2c3ccccc3Sc3ccc(C(F)(F)F)cc32)CC1 [fluphenazine, reference compound]",0.04,0.7,0.43,0.3,2.5-5,98,–,–,–
CN1CCN([C@@H]2C[C@@H](c3ccc(F)cc3)c3ccc(Cl)cc32)CC1 (relative stereo) [Lu 17-121],2,10,0.3,3,0.63,68,–,–,–
COc1ccc2c(c1)C(N1CCN(CCO)CC1)CC2c1ccc(F)cc1 (centres unmarked) [Lu 18-006],8.6,16.6,0.7,12,5,113,–,–,–
OCCCN1CCN(C2CC(c3ccc(F)cc3)c3ccc(C(F)(F)F)cc32)CC1 (centres unmarked) [Lu 18-048],0.12,0.16,0.4,0.07,1.3,57,–,–,–
"OCCN1CCN([C@@H]2C[C@@H](c3ccc(F)cc3)c3ccc(F)cc32)CC1 (relative stereo) [Lu 13-117, 1-(2-hydroxyethyl)-4-(3-(4'-fluorophenyl)-6-fluoro-1-indanyl)piperazine]",3,6,13,79,0.63,113,–,–,–
Fc1ccc(C2CC(N3CCN(CC4CCCCC4)CC3)c3cc(F)ccc32)cc1 (centres unmarked) [Lu 17-100],4,> 40,–,40,10,93,–,–,–
CN1CCN([C@@H]2C[C@@H](c3ccccc3)c3ccc(Cl)cc32)CC1 (relative stereo) [Lu 14-063],29,> 40,–,> 40,5,80,–,–,–
OCCN1CCN([C@@H]2C[C@@H](c3ccc(F)cc3)c3cc(F)ccc32)CC1 (relative stereo) [Lu 17-075],6,> 40,–,> 40,2.5,80,–,–,–
"CN1CCN(C2CC(c3ccc(F)cc3)c3ccc(F)cc32)CC1 (single isomer, unassigned; (+)) [Lu 17-151, (+) 1-Methyl-4-(3-(4'-fluorophenyl)-6-fluoro-1-indanyl) piperazine]",–,–,2.7,–,0.63,113,1.0,6.1,16.4
